Assay results published in ChEMBL document CHEMBL5576115, “Design and synthesis of chromene-1,2,3-triazole benzene sulfonamide hybrids as potent carbonic anhydrase-IX inhibitors against prostate cancer” (RSC Med Chem, 2024).
One block for each compound: values may come before it. The source made the active and inactive calls. The rule behind the calls is not given here.

Columns and labels:
MCF7 [1] = test: Cytotoxicity against human MCF7 cells assessed as reduction in cell viability measured after 48 hrs by MTT assay; type: functional, cell-based; conditions: MCF7, 48 h
PC-3 [2] = test: Cytotoxicity against human PC-3 cells assessed as reduction in cell viability measured after 48 hrs by MTT assay; type: functional, cell-based; conditions: PC-3, 48 h
MCF7 [3] = test: Cytotoxicity against human MCF7 cells assessed as reduction in cell viability at 100 uM measured after 48 hrs by MTT assay; type: functional, cell-based
PC-3 [4] = test: Cytotoxicity against human PC-3 cells assessed as reduction in cell viability at 100 uM measured after 48 hrs by MTT assay; type: functional, cell-based
WI-38 = test: Cytotoxicity against human WI-38 cells assessed as cell death at 100 uM measured after 48 hrs by MTT assay relative to control; type: toxicity, cell-based; conditions: wi-38, 48 h
Carbonic anhydrase 9 = Carbonic anhydrase 9 (Homo sapiens, UniProt Q16790); test: biochemical; type: cell-based, Sf9
Description: Inhibition of human C-terminal His-tagged CA-9 (59 to 414 residues) expressed in baculovirus infected Sf9 insect cells

[5] = Cytotoxicity against human WI-38 cells assessed as reduction in cell viability measured after 48 hrs by MTT assay; type: toxicity, cell-based
PC-3 [6] = test: Induction of apoptosis in human PC-3 cells assessed as necrotic cells at cytotoxic IC50 measured after 48 hrs by Annexin-V-FITC/propidium iodide staining based flow cytometry (reference value: 1.61%); type: functional
PC-3 [7] = test: Cell cycle arrest in human PC-3 cells assessed as accumulation of cells at G2/M phase at cytotoxic IC50 measured after 48 hrs by propidium iodide staining based flow cytometry (reference value: 12.75%); type: functional
PC-3 [8] = test: Induction of apoptosis in human PC-3 cells assessed as accumulation of late apoptotic cells at cytotoxic IC50 measured after 48 hrs by Annexin-V-FITC/propidium iodide staining based flow cytometry relative to control; type: functional
PC-3 [9] = test: Cell cycle arrest in human PC-3 cells assessed as accumulation of cells at S phase at cytotoxic IC50 measured after 48 hrs by propidium iodide staining based flow cytometry (reference value: 19.81%); type: functional
PC-3 [10] = test: Induction of apoptosis in human PC-3 cells assessed as accumulation of early apoptotic cells at cytotoxic IC50 measured after 48 hrs by Annexin-V-FITC/propidium iodide staining based flow cytometry relative to control; type: functional
PC-3 [11] = test: Cell cycle arrest in human PC-3 cells assessed as accumulation of cells at G1 phase at cytotoxic IC50 measured after 48 hrs by propidium iodide staining based flow cytometry relative to control; type: functional

Compound: O=c1cc(-c2ccccc2)c2c(OCc3cn(-c4ccc(S(=O)(=O)Nc5ncccn5)cc4)nn3)cc(OCc3cn(-c4ccc(S(=O)(=O)Nc5ncccn5)cc4)nn3)cc2o1
IC50 (MCF7 [1]): 66.7 µM | IC50 (PC-3 [2]): 11.6 µM

Compound: Cc1cc(C)nc(NS(=O)(=O)c2ccc(-n3cc(COc4ccc5c(C)cc(=O)oc5c4C)nn3)cc2)n1
IC50 (MCF7 [1]): 41.1 µM | IC50 (PC-3 [2]): 21.4 µM

Compound: Cc1cc(=O)oc2cc(OCc3cn(-c4ccc(S(=O)(=O)Nc5ccccn5)cc4)nn3)ccc12
IC50 (MCF7 [1]): 32 µM | IC50 (PC-3 [2]): 15.8 µM

Compound: Cc1cc(C)nc(NS(=O)(=O)c2ccc(-n3cc(COc4ccc5c(C)cc(=O)oc5c4)nn3)cc2)n1
IC50 (MCF7 [1]): 97.5 µM | IC50 (PC-3 [2]): 9.98 µM

Compound: Cc1cc(=O)oc2c(C)c(OCc3cn(-c4ccc(S(=O)(=O)Nc5ccccn5)cc4)nn3)ccc12
IC50 (MCF7 [1]): 14.3 µM | IC50 (PC-3 [2]): 8.95 µM | Activity (MCF7 [3]): Active

Compound: Cc1cc(=O)oc2c(C)c(OCc3cn(CC(=O)Nc4ccc(S(=O)(=O)Nc5ccccn5)cc4)nn3)ccc12
IC50 (MCF7 [1]): 38.9 µM | IC50 (PC-3 [2]): 40.1 µM

IC50 (Carbonic anhydrase 9): 134 nM
Compound: Cc1cc(C)nc(NS(=O)(=O)c2ccc(-n3cc(COc4cc(OCc5cn(-c6ccc(S(=O)(=O)Nc7nc(C)cc(C)n7)cc6)nn5)c5c(-c6ccccc6)cc(=O)oc5c4)nn3)cc2)n1
Activity (PC-3 [4]): Active | Activity (WI-38): 23.6% | IC50 (MCF7 [1]): > 100 µM | IC50 (PC-3 [2]): 7.57 µM | IC50 at 48 h [5]: 46.6 µM

IC50 (Carbonic anhydrase 9): 214 nM
Compound: O=C(Cn1cc(COc2cc(OCc3cn(CC(=O)Nc4ccc(S(=O)(=O)Nc5ccccn5)cc4)nn3)c3c(-c4ccccc4)cc(=O)oc3c2)nn1)Nc1ccc(S(=O)(=O)Nc2ccccn2)cc1
Activity (PC-3 [4]): Active | Activity (WI-38): 23.6% | IC50 (MCF7 [1]): 57.2 µM | IC50 (PC-3 [2]): 5.52 µM | IC50 at 48 h [5]: 46.6 µM

Compound: COc1cccc2c1C(=O)c1c(O)c3c(c(O)c1C2=O)C[C@@](O)(C(=O)CO)C[C@@H]3O[C@H]1C[C@H](N)[C@H](O)[C@H](C)O1 [DOXORUBICIN]
IC50 (MCF7 [1]): 3.41 µM | IC50 (PC-3 [2]): 2.31 µM

Compound: Cc1cc(=O)oc2cc(OCc3cn(CC(=O)Nc4ccc(S(=O)(=O)Nc5ccccn5)cc4)nn3)ccc12
IC50 (MCF7 [1]): 17 µM | IC50 (PC-3 [2]): 58.9 µM | Activity (MCF7 [3]): Active

Compound: N=C(N)NS(=O)(=O)c1ccc(-n2cc(COc3cc(OCc4cn(-c5ccc(S(=O)(=O)NC(=N)N)cc5)nn4)c4c(-c5ccccc5)cc(=O)oc4c3)nn2)cc1
IC50 (MCF7 [1]): 19.1 µM | IC50 (PC-3 [2]): 14.6 µM | Activity (MCF7 [3]): Active

Compound: Cc1cc(=O)oc2cc(OCc3cn(-c4ccc(S(=O)(=O)N=C(N)N)cc4)nn3)ccc12
IC50 (MCF7 [1]): 76 µM | IC50 (PC-3 [2]): 23.9 µM

IC50 (Carbonic anhydrase 9): 113 nM
Compound: O=c1cc(-c2ccccc2)c2c(OCc3cn(-c4ccc(S(=O)(=O)Nc5ccccn5)cc4)nn3)cc(OCc3cn(-c4ccc(S(=O)(=O)Nc5ccccn5)cc4)nn3)cc2o1
Activity (PC-3 [6]): 4.68% | Activity (PC-3 [7]): 9.36% | Activity (PC-3 [4]): Active | fold change (FC) (PC-3 [8]): 60 | Activity (WI-38): 23.6% | Activity (PC-3 [9]): 15.29% | IC50 (MCF7 [1]): 18 µM | fold change (FC) (PC-3 [10]): >18 | IC50 (PC-3 [2]): 2.08 µM | Activity (PC-3 [11]): 31.9% | IC50 at 48 h [5]: 46.6 µM

Compound: Cc1cc(=O)oc2c(C)c(OCc3cn(-c4ccc(S(=O)(=O)Nc5ncccn5)cc4)nn3)ccc12
IC50 (MCF7 [1]): 16.7 µM | IC50 (PC-3 [2]): 12.5 µM

Compound: Cc1cc(=O)oc2cc(OCc3cn(-c4ccc(S(=O)(=O)Nc5ncccn5)cc4)nn3)ccc12
IC50 (MCF7 [1]): 41.4 µM | IC50 (PC-3 [2]): 8.31 µM

Compound: Cc1cc(=O)oc2c(C)c(OCc3cn(-c4ccc(S(=O)(=O)N=C(N)N)cc4)nn3)ccc12
IC50 (MCF7 [1]): 56.3 µM | IC50 (PC-3 [2]): 29.7 µM
